The text below walks through data of US9765026B2, “Forms of apremilast and the process of making the same” (ScinoPharm Taiwan, Ltd., priority 2015, dated 2017).

Data set [1] in a line: Stability at 40° C./75% RH. Format: physicochemical. As to conditions: 40° C./75% RH for 4 weeks. The protocol:
In comparison with the form F disclosed in U.S. Pat. No. 8,093,293, Form 3 and Form 4 in the present disclosure needs less process time to be prepared and is stable even at 40° C./75% RH for 4 weeks.

Data set [2] in a line: Dynamic Vapor Sorption (DVS) analysis of moisture uptake and release. Format: physicochemical. As to conditions: for hygroscopicity (conclusion from DVS): cycling between 0% and 90% RH. On the procedure: Dynamic Vapor Sorption (DVS)
The sample was placed into the DVS sample pan and dried under a stream of dry nitrogen at 25° C. (0% RH). The moisture was gradually introduced into the system with a 10% RH increment up to 90% RH and the humidity was then decreased in a similar trend for desorption phase. The sorption and desorption data were collected with equilibration set to dm/dt 0.004%/min for 5 min/step. The minimum and maximum time for each step were set to 10 and 360 min. Two sorption/desorption cycles were performed.

Consider `CCOc1cc([C@@H](CS(C)(=O)=O)N2C(=O)c3cccc(NC(C)=O)c3C2=O)ccc1OC` [Form 3, apremilast], for which the stability on storage result in data set [1] is listed as “stable”.
In the case of `CCOc1cc([C@@H](CS(C)(=O)=O)N2C(=O)c3cccc(NC(C)=O)c3C2=O)ccc1OC` [Form 4, apremilast], the weight gained result in data set [2] (at 10% RH (FIG. 12)) was “about 3.3%”. For the same molecule, the “hygroscopicity (conclusion from DVS)” value in data set [2] is listed as “non-hygroscopic”. For the same molecule, the “change in sample weight” value in data set [2] (humidity increased from 10% to 90% RH (FIG. 12)) is reported as “no significant change”. In data set [1], the stability on storage entry is on record as “stable”.
`CCOc1cc([C@@H](CS(C)(=O)=O)N2C(=O)c3cccc(NC(C)=O)c3C2=O)ccc1OC` [Form II, apremilast] gave a water content in data set [2] (RH 90% (FIG. 5B)) of 4.5%. Besides, the “hygroscopicity (conclusion from DVS)” value in data set [2] is “hygroscopic”.
As for `CCOc1cc([C@@H](CS(C)(=O)=O)N2C(=O)c3cccc(NC(C)=O)c3C2=O)ccc1OC` [amorphous apremilast, apremilast], in data set [2], the “hygroscopicity (conclusion from DVS)” value is reported as “hygroscopic”. Further, in data set [2] (cycling between 0% and 90% RH (FIG. 15)), the maximum moisture uptake entry is given as “about 2.5 % of the total mass of the sample”.
